# According to patent US10286092B2, “Detecting a therapeutic cell” (UCL Business PLC, priority 2015, dated 2019):
# Residue numbers refer to the chain shown, from its start. Names and notes keep the numbering of the source. Values joined by “and” are separate entries in the source; they are usually repeats but may differ in a detail not shown here. Equal values may be shown once. “Also recorded” adds a separate entry of the source.
# B1: dhDATopt: truncated hDAT, probably lacking the 49 N-terminal amino acids compared to wild-type hDAT (protein)
# chain: MSKSKCSVGLMSSVVAPAKEPNAVGPKEVELILVKEQNGVQLTSSTLTNPRQSPVEAQDRETWGKKIDFLLSVIGFAVDLANVWRFPYLCYKNGGGAFLVPYLLFMVIAGMPLFYMELALGQFNREGAAGVWKICPILKGVGFTVILISLYVGFFYNVIIAWALHYLFSSFTTELPWIHCNNSWNSPNCSDAHPGDSSGDSSGLNDTFGTTPAAEYFERGVLHLHQSHGIDDLGPPRWQLTACLVLVIVLLYFSLWKGVKTSGKVVWITATMPYVVLTALLLRGVTLPGAIDGIRAYLSVDFYRLCEASVWIDAATQVCFSLGVGFGVLIAFSSYNKFTNNCYRDAIVTTSINSLTSFSSGFVVFSFLGYMAQKHSVPIGDVAKDGPGLIFIIYPEAIATLPLSSAWAVVFFIMLLTLGIDSAMGGMESVITGLIDEFQLLHRHRELFTLFIVLATFLLSLFCVTNGGIYVFTLLDHFAAGTSILFGVLIEAIGVAWFYGVGQFSDDIQQMTGQRPSLYWRLCWKLVSPCFLLFVVVVSIVTFRPPHYGAYIFPDWANALGWVIATSSMAMVPIYAAYKFCSLPGSFREKLAYAIAPEKDRE
# modifications: dhDATopt_d protein sequence
# notes: truncated hDAT, probably lacking the 49 N-terminal amino acids compared to wild-type hDAT
# B2: hDAToptD313N: hDAT including a D313N mutation (protein, UniProt Q01959 1-620, looked up, variant D313N)
# Sodium-dependent dopamine …: MSKSKCSVGLMSSVVAPAKEPNAVGPKEVELILVKEQNGVQLTSSTLTNPRQSPVEAQDRETWGKKIDFLLSVIGFAVDLANVWRFPYLCYKNGGGAFLVPYLLFMVIAGMPLFYMELALGQFNREGAAGVWKICPILKGVGFTVILISLYVGFFYNVIIAWALHYLFSSFTTELPWIHCNNSWNSPNCSDAHPGDSSGDSSGLNDTFGTTPAAEYFERGVLHLHQSHGIDDLGPPRWQLTACLVLVIVLLYFSLWKGVKTSGKVVWITATMPYVVLTALLLRGVTLPGAIDGIRAYLSVDFYRLCEASVWINAATQVCFSLGVGFGVLIAFSSYNKFTNNCYRDAIVTTSINSLTSFSSGFVVFSFLGYMAQKHSVPIGDVAKDGPGLIFIIYPEAIATLPLSSAWAVVFFIMLLTLGIDSAMGGMESVITGLIDEFQLLHRHRELFTLFIVLATFLLSLFCVTNGGIYVFTLLDHFAAGTSILFGVLIEAIGVAWFYGVGQFSDDIQQMTGQRPSLYWRLCWKLVSPCFLLFVVVVSIVTFRPPHYGAYIFPDWANALGWVIATSSMAMVPIYAAYKFCSLPGSFREKLAYAIAPEKDRELVDRGEVRQFTLRHWLKV
# B3: hDAT: human dopamine transporter expressed from tricistronic construct RQR8.2A.aCD19.2A.hDAT_opt (protein)
# chain: B2 Sodium-dependent dopamine … with N313D
# modifications: hDAT protein sequence
# What was measured:
# hDAT [1] = target: T1, hDAT (Homo sapiens, UniProt Q01959); experiment: In vitro radiosubstrate binding assay, hDAT expressing T-cells
# T1 construct: expressed in transfected cells; host or cells: SupT1 human T-cell line, retrovirally transduced with SFG.hDAT.I.CD34 (co-transduced with FLuc for in vivo work)
# Method: (§1) Reporter protein binding capabilities was assessed in a method previously described. Briefly, 1×10^6 all hDAT expressing T-cells and the non-transduced control cells were incubated at 37° C. with 7.4 kBq ^123I-FP-CIT (GE, Healthcare) for 30 mins. At each time point, cells were rapidly washed twice with 500 μL ice-cold PBS and the supernatant collected. Cell pellets were re-suspended in 1 mL PBS. ^123I-FP-CIT binding in cells and medium was measured using a gamma counter (WIZARD^2, PerkinElmer, UK). To determine the non-specific binding of the ^123I-FP-CIT in hDAT (+) cells, transduced cells and non-transduced cells were incubated with 50 μM of β-CIT-FP (ABX) for 5 min. ^123I-FP-CIT cells were subsequently prepared for gamma counting as mentioned above. All experiments were performed in triplicates and repeated ≥twice. All results are given as mean±standard deviation of the mean (SD). The data was analysed using one way analysis of variance (ANOVA) followed by the Tukey's HSD test with the IBM SPSS software.
# [2] = system: control non-transduced (NT) SupT1 cells; experiment: In vitro radiosubstrate binding assay, non-transduced control cells; parameters: species or system human; details: 7.4 kBq, 37° C., 30 min
# Method: as §1
# DAT = target: T2, DAT (Mus musculus, UniProt Q61327); experiment: SPECT/CT imaging of striatum (endogenous DAT) in NSG mice; type: in vivo; details: NSG mice n=4
# T2 construct: the striatum (region with high endogenous expression of DAT); from tissue; host or cells: striatum of living NSG mice (in vivo SPECT)
# Method: (§2) Animals were administered with 1.5 mmol/kg of the thyroid blocking agent potassium perchlorate (Sigma Aldrich, USA) intraperitoneally one hour prior to imaging. Animals were imaged with a NanoSPECT/CT small animal in vivo scanner (Mediso, Hungary) consisting of a rotating double headed camera (company, country). 1.2 mm pinhole mouse apertures were used. Imaging was performed under isoflurane (1.5-2%) and the body temperature was maintained at 37° C. using a heated animal bed (Minerve, France). For the kinetic study, animals were administered with an average of 17.25±1.22 MBq of ^123I-FP-CIT i.v. and 15 min. brain scans were acquired day 25 post tumour inoculation at 15 min. 2 h, 4 h, 6 h and 8 h. Images were reconstructed using HiSPECT software (InviCRO, USA) and image processing analysis was performed (VivoQuant Software; InviCRO, USA).
# Time activity profiles were generated evaluate the hDAT reporter system in vivo. […] The percentage in injected dose per mm^3 (% ID/mm^3) was calculated by; injected dose (MBq)/counts in the whole body (MBq)/volume of the ROI (mm^3) to determine the peak uptake time and the optimum imaging window. […] The binding ratios were calculated by determining the mean counts per pixel in the specific region (hDAT expressing xenograft for the hDAT: cerebellum and hDAT: striatum ratios) divided by the mean counts per pixel in the nonspecific region.
# hDAT [3] = target: T1, hDAT; experiment: SPECT/CT imaging of hDAT-positive brain xenografts in NSG mice; type: in vivo; details: for specific to non-specific binding ratio hDAT: cerebellum: NSG mice n=4
# Method: All animal procedures were carried out in accordance with the UK Animals (Scientific Procedures) 1986 Act and institutional ethics regulation. NSG mice were bred in-house and kept according to institutional guidelines. Male mice 6-10 weeks old were injected with 2 mg/kg body weight of 5% carprofen (Norbrook) and anaesthetised with 3-5% Isoflurane (ABBOTT, UK) in an induction chamber. Animals were placed in a stereotactic frame (David Kopf Instruments) with an anaesthesia head holder to deliver 3% isoflurane. A sagittal incision over the parieto-occipital bone using a sterile scalpel (Swann Morton Ltd) was made and a blunt ended Hamilton (75N, 26s/2″/2′5 ul) syringe with SupT1/hDAT.I.CD34 was placed 1.5 mm lateral and 1 mm anterior of bregma. The needle was lowered 4 mm in the brain through a burr hole and retracted 1 mm to create a small reservoir where the cells (1×10^4 in a 3 μl volume) were injected.
# as §2
# Time activity profiles were generated evaluate the hDAT reporter system in vivo. Regions of interest (ROIs) for the hDAT expressing xenografts, cerebellum (chose background region) and striatum were drawn on the SPECT/MR/CT coregistered data. The percentage in injected dose per mm^3 (% ID/mm^3) was calculated by; injected dose (MBq)/counts in the whole body (MBq)/volume of the ROI (mm^3) to determine the peak uptake time and the optimum imaging window. A method based on the striatal binding ratio was utilised to determine specific-to-nondisplaceable binding ratios previously described as indicative of the binding potential at the time of binding equilibrium^6,7. The binding ratios were calculated by determining the mean counts per pixel in the specific region (hDAT expressing xenograft for the hDAT: cerebellum and hDAT: striatum ratios) divided by the mean counts per pixel in the nonspecific region.
# [4] = system: non-transduced SupT1 cells; experiment: SPECT imaging of control animals injected with non-transduced SupT1 cells; type: in vivo, mouse; details: intracranially injected non-transduced SupT1 cells
# Method: as §2
# hDAT [5] = target: T1, hDAT; experiment: PET/CT imaging of hDAT positive cells in mouse brain; type: in vivo; details: i.v.
# Method: Animals were administered with 1.5 mmol/kg of the thyroid blocking agent potassium perchlorate (Sigma Aldrich, USA) intraperitoneally one hour prior to imaging. Animals were imaged with a PET/CT small animal in vivo scanner (Mediso, Hungary). Imaging was performed under isoflurane (1.5-2%) and the body temperature was maintained at 37° C. using a heated animal bed (Minerve, France). Four weeks post tumour inoculation, animals were administered with 5 MBq of ^18F-FP-CIT i.v. and brain scans were acquired 30 min post injection. A high-resolution CT was acquired immediately following […] imaging. Images were reconstructed using HiSPECT software (InviCRO, USA) and image processing analysis was performed (VivoQuant Software; InviCRO, USA).
# [6] = Binding of 123I-FP-CIT by hDAT and hDAT variant proteins from different constructs; details: for binding of [123I]-FP-CIT by hDAT variant: compared to wild-type hDAT, FIG. 7
# Method: as §1
# [7] = after 4 h post i.v. injection (constant)
# T1 sequence (Q01959 whole entry): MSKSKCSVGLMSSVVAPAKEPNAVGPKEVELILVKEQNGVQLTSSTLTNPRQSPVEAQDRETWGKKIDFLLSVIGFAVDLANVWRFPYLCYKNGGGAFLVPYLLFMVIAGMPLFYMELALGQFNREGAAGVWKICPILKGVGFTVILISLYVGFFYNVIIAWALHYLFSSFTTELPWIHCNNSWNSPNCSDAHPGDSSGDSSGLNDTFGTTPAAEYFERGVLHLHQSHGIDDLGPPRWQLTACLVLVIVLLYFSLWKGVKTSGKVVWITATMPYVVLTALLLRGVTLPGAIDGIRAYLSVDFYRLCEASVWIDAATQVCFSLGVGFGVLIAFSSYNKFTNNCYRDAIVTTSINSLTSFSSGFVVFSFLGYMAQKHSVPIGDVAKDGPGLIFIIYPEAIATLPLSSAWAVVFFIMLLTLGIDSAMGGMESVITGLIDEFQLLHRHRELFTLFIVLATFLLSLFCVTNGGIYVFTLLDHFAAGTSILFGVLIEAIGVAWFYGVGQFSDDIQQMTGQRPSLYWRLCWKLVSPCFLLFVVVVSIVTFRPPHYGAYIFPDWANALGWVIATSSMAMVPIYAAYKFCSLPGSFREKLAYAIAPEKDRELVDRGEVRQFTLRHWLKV
# T2 sequence (Q61327 whole entry): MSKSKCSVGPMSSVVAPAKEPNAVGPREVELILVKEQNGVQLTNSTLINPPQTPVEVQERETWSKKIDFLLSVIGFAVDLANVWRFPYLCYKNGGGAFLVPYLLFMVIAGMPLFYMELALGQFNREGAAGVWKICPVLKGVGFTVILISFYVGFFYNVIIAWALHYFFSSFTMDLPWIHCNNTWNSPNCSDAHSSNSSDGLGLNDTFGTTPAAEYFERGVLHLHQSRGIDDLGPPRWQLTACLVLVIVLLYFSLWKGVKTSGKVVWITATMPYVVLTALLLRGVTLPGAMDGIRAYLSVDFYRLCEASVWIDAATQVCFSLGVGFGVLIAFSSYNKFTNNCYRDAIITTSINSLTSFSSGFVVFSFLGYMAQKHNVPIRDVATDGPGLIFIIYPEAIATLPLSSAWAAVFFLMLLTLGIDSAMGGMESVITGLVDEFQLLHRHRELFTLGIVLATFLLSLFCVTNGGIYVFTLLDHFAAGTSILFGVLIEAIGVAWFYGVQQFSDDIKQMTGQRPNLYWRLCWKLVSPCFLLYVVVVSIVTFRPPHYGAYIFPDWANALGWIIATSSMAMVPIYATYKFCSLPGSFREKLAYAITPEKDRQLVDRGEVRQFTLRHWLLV
molecule,measurement,setting,value
COC(=O)[C@H]1[C@@H](c2ccc(I)cc2)C[C@@H]2CC[C@H]1N2CCCF [[I]-FP-CIT],% [123I]-FP-CIT binding in the presence of [I]-FP-CIT,"hDAT [1]; SupT1/SFG.hDAT.I.CD34 cells co-incubated with cold compound, 50 μM",1.10±0.22%
same,fold reduction of [123I]-FP-CIT binding in the presence of [I]-FP-CIT,"hDAT [1]; SupT1/SFG.hDAT.I.CD34 cells, cold compound 50 μM, p<0.001",32 fold
same,inhibition of [123I]-FP-CIT binding by cold compound (in words),"hDAT [1]; hDAT positive T-cells, co-incubation with cold compound 50 μM",complete binding inhibition; also recorded: completely abolished
"COC(=O)[C@H]1[C@@H](c2ccc(I)cc2)C[C@@H]2CC[C@H]1N2CCCF [[^123I]-FP-CIT, [I-^123] N-ω-fluoropropyl-2β-carbomethoxy-3β-(4-iodophenyl) nortropane]",percentage [123I]-FP-CIT binding,[2],1.41±0.40%
same,specific to non-specific binding ratio striatum: cerebellum,DAT; 2 h post i.v. injection (peak),6.56±2.40
same,specific to non-specific binding ratio striatum: cerebellum,DAT; [7],4.08±0.60
same,specific to non-specific binding ratio hDAT: cerebellum,hDAT [3]; 2 h post i.v. injection (peak),5.73±1.75
same,optimum imaging time post injection,"hDAT [3]; SupT1/SFG.hDAT.I.CD34 xenografts, SPECT",2 h
same,specific to non-specific binding ratio hDAT: cerebellum,hDAT [3]; [7],4.09±0.38
same,co-localisation of SPECT signal with MR contrast at xenograft site,"hDAT [3]; co-registered SPECT-MR-CT, 2 h post i.v. injection",good co-localisation; also recorded: good correlation
same,time post radiotracer injection at which hDAT-positive xenografts were visualised by SPECT,"hDAT [3]; dynamic SPECT at 15 min, 2 h, 4 h, 6 h",as early as 15 min and up to 6 hr
same,SPECT signal in control animals,[4],non-detectable
same,percentage [123I]-FP-CIT binding,"hDAT [1]; SupT1/SFG.hDAT.I.CD34 cells, 7.4 kBq, 37° C., 30 min",35.10±5.24%
same,fold greater % [123I]-FP-CIT binding in SupT1/SFG.hDAT.I.CD34 compared to control cells,hDAT [1]; hDAT cells vs non-transduced SupT1 cells,25 fold and 27 fold
"COC(=O)[C@H]1[C@@H](c2ccc(I)cc2)C[C@@H]2CC[C@H]1N2CCC[18F] [^18F-FP-CIT, [^18F] fluoropropyl-carbomethoxy-iodophenyl-nortropane]",detection of hDAT positive cells by PET/CT,hDAT [5],could also be detected
RQR8-hDAT: hDAT tagged with RQR8,binding of [123I]-FP-CIT by hDAT variant,[6],increased levels
B1,binding of [123I]-FP-CIT by hDAT variant,[6],able to bind
B2,binding of [123I]-FP-CIT by hDAT variant,[6],increased levels
B3,binding of [123I]-FP-CIT by hDAT co-expressed with CD19 CAR,"[6]; hDAT expressed from CD19 CAR-hDAT tricistronic construct, FIG. 8C",able to bind
